Each compound was assayed against c-kit (Homo sapiens, UniProt P10721) (assay: c-kit assays of Examples 40 and 41 (AlphaScreen kinase assays at 10 and 100 μM ATP, 33P-ATP filter assay, M-07e SCF-stimulated proliferation and phosphorylation)).
Sequence of c-kit (P10721 with tags, fused parts or gaps): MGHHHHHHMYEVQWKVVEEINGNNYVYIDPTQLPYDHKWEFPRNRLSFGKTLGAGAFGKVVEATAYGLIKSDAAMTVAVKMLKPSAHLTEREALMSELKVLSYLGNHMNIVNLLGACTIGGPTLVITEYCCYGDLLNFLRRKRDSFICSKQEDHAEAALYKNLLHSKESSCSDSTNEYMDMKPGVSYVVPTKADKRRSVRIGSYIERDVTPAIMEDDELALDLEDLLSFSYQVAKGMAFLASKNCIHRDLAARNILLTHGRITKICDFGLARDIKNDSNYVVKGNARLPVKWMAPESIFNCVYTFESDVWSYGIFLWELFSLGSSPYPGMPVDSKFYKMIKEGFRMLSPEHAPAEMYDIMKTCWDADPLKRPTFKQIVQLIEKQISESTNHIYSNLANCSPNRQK

Row | SMILES | IC50 [µM]
1 | c1cc(CNc2ccc(Cc3c[nH]c4ncccc34)cn2)cc(N2CCOCC2)c1 [P-0126, (3-Morpholin-4-yl-benzyl)-[5-(1H-pyrrolo[2,3-b]pyridin-3-ylmethyl)-pyridin-2-yl]-amine] | < 1
2 | Fc1nc(NCc2ccc(Cl)cc2)ccc1Cc1c[nH]c2ncc(Cl)cc12 [P-0132, (4-Chloro-benzyl)-[5-(5-chloro-1H-pyrrolo[2,3-b]pyridin-3-ylmethyl)-6-fluoro-pyridin-2-yl]-amine] | < 1
3 | Cc1nn(Cc2ccc(C(F)(F)F)o2)c(C)c1Cc1c[nH]c2ncccc12 [P-0138, 3-[3,5-Dimethyl-1-(5-trifluoromethyl-furan-2-ylmethyl)-1H-pyrazol-4-ylmethyl]-1H-pyrrolo[2,3-b]pyridine] | < 1
4 | Cc1nc(-c2ccc(C(F)(F)F)cc2)sc1Cn1nc(C)c(Cc2c[nH]c3ncccc23)c1C [P-0143, 3-{3,5-Dimethyl-1-[4-methyl-2-(4-trifluoromethyl-phenyl)-thiazol-5-ylmethyl]-1H-pyrazol-4-ylmethyl}-1H-pyrrolo[2,3-b]pyridine] | < 1
5 | Cc1nc(-c2ccccc2)sc1Cn1nc(C)c(Cc2c[nH]c3ncccc23)c1C [P-0144, 3-[3,5-Dimethyl-1-(4-methyl-2-phenyl-thiazol-5-ylmethyl)-1H-pyrazol-4-ylmethyl]-1H-pyrrolo[2,3-b]pyridine] | < 1
6 | COc1ccccc1CNC(=O)n1nc(C)c(Cc2c[nH]c3ncccc23)c1C [P-0145, 3,5-Dimethyl-4-(1H-pyrrolo[2,3-b]pyridin-3-ylmethyl)-pyrazole-1-carboxylic acid 2-methoxy-benzylamide] | < 1
7 | Cc1nn(C(=O)NCCc2ccccc2F)c(C)c1Cc1c[nH]c2ncccc12 [P-0148, 3,5-Dimethyl-4-(1H-pyrrolo[2,3-b]pyridin-3-ylmethyl)-pyrazole-1-carboxylic acid [2-(2-fluoro-phenyl)-ethyl]-amide] | < 1
8 | Fc1ccc(Cc2c[nH]c3ncccc23)c(F)n1 [P-0154, 3-(2,6-difluoro-pyridin-3-ylmethyl)-1H-pyrrolo[2,3-b]pyridine] | < 1
9 | Cc1nn(C(=O)NCc2ccc(Cl)cc2)c(C)c1Cc1c[nH]c2ncc(Cl)cc12 [P-0159, 4-(5-Chloro-1H-pyrrolo[2,3-b]pyridin-3-ylmethyl)-3,5-dimethyl-pyrazole-1-carboxylic acid 4-chloro-benzylamide] | < 1

Now from value to compound:

Row | IC50 [µM] | SMILES
10 | < 1 | CC(Nc1ccc(Cc2c[nH]c3ncccc23)cn1)c1ccccc1F (stereo not shown) [P-0127, [1-(2-Fluoro-phenyl)-ethyl]-[5-(1H-pyrrolo[2,3-b]pyridin-3-ylmethyl)-pyridin-2-yl]-amine]
11 | < 1 | Fc1cccc(CCNc2ccc(Cc3c[nH]c4ncccc34)cn2)c1 [P-0128, [2-(3-Fluoro-phenyl)-ethyl]-[5-(1H-pyrrolo[2,3-b]pyridin-3-ylmethyl)-pyridin-2-yl]-amine]
12 | < 1 | Clc1cccc(CNc2ccc(Cc3c[nH]c4ncccc34)cn2)c1 [P-0129, (3-chloro-benzyl)-[5-(1H-pyrrolo[2,3-b]pyridin-3-ylmethyl)-pyridin-2-yl]-amine]
13 | < 1 | Cc1cc(CNc2ccc(Cc3c[nH]c4ncccc34)cn2)nn1C [P-0131, (1,5-Dimethyl-1H-pyrazol-3-ylmethyl)-[5-(1H-pyrrolo[2,3-b]pyridin-3-ylmethyl)-pyridin-2-yl]-amine]
14 | < 1 | Clc1ccc(CNc2ccc(Cc3c[nH]c4ncccc34)c(Cl)n2)cc1 [P-0161, (4-Chloro-benzyl)-[6-chloro-5-(1H-pyrrolo[2,3-b]pyridin-3-ylmethyl)-pyridin-2-yl]-amine]
15 | < 1 | Cc1nc(NCc2ccc(F)cc2)sc1Cc1c[nH]c2ncccc12 [P-0163, (4-Fluoro-benzyl)-[4-methyl-5-(1H-pyrrolo[2,3-b]pyridin-3-ylmethyl)-thiazol-2-yl]-amine]
16 | < 1 | Cn1nc(NCc2ccc(F)cc2)cc1Cc1c[nH]c2ncc(Cl)cc12 [P-0170, [5-(5-Chloro-1H-pyrrolo[2,3-b]pyridin-3-ylmethyl)-1-methyl-1H-pyrazol-3-yl]-(4-fluoro-benzyl)-amine]

Reference: patent US9487515B2, “Compounds modulating c-fms and/or c-kit activity and uses therefor” (Plexxikon Inc., priority 2006, dated 2016)
